Key:
dLight1.3bL143I = dLight1.3bL143I (Homo sapiens, UniProt P21728, L143I); experiment: cell-based; format: cell-based
Method: Cells were transfected at 50–60% confluency in glass-bottomed dishes (either individually or in 24-well plates) using the Effectene transfection kit (Qiagen) according to manufacturer instructions, and imaged 24–48 h after transfection. The Flp-In™ T-REx™ 293 cells (Thermo Fisher) with a stably integrated dLight1.3b cassette[48] were cultured as follows: the cells were cultured using HEK293T cell medium with the addition of Blasticidin (15 µg/ml) and Hygromycin B (200 µg/ml). To induce the expression of dLight1.3b, doxycycline (500 ng/ml) was added to the culture medium for 24–48 hours. Before imaging, cells were rinsed with 1 mL of Hank’s Balanced Salt Solution (HBSS, Life Technologies) supplemented with Ca^2+ (2 mM) and Mg^2+ (1 mM), and imaged at room temperature with a final HBSS volume of either 100 µL for each individual 1.5 cm glass bottom dish, or 500 µL for 24-well plates. Time-lapse imaging was performed on an inverted Zeiss LSM 800 confocal microscope using a 488 nm laser and a 40X oil-based objective. During imaging, ligands were added in bolus on the cells using a micropipette to reach the final specified concentrations of ligand over the cells. For quantification, except otherwise noted, regions of interest (ROI) were selected manually using the threshold function of Fiji to isolate the cell membrane. Sensor response (∆F/F) was calculated as the following: (F(t)-F_base)/F_base with F(t) being the ROI fluorescence value at each time point (t), and F_base being the mean fluorescence of the 10-time points immediately prior to ligand addition.

dLight1.3b = experiment: In vivo photometry of optogenetically-evoked DA release in PFC; parameters: species or system mouse; details: DETQ 10 mg/kg i.p.
Method: Fiber photometry combined with optogenetics was conducted using a RZ10X LUX-I/O Processor with integrated LEDs (Tucker-Davis Technologies) combined with a filter/mirror minicube set (FMC6_IE(400-410)_E1(467-497)_F1(507-554)_E2(566-586)_F2(600-680)_S) (Doric Lenses). […] Low-autofluorescence patch cords (400 µm/0.57 NA, Doric) were attached to the optic fibers (400 µm/0.66 NA, Doric) on the mouse’s head to collect fluorescence emissions. Signals were filtered through 500–540 nm GFP emission filters coupled to a photodetector on the RZ10X. […] Data were sampled at 1017.3 Hz. […] For optogenetic stimulation, a 635 nm LED was passed through the 580–680 nm minicube F2 port and reached the mouse through the same unique optic fiber; the LED was driven at 1 to 3 mW. To determine the ‘temporal window for stable imaging’ in the PFC using dLight1.3b recordings, DAT^IREScre mice expressing ChrimsonR in VTA DA axons and dLight1.3b in the PFC were injected i.p. with vehicle at 0 min, followed by DETQ (10 mg/kg) 25 min later. After each injection, PFC DA axons were optically (opto) activated across 5 trials (2 s, 20 Hz, 20-ms pulses) for the vehicle (20 min) and […] for DETQ (1h05 min) every 5 min. DA release was measured with fiber photometry. In another session, the same mice were injected with Veh, then DETQ (10 mg/kg) 20 min later, then cocaine (20 mg/kg) 25 min later, and the same optogenetic protocol was applied (2 s, 20 Hz, 20-ms pulses every 5 min). For optogenetic validation of AlloLite-ctr in the NAc, DAT^IREScre mice expressing ChrimsonR in VTA DA axons were injected i.p. with vehicle (Day 1) or DETQ (10 mg/kg) (Day 8) at 0 min, followed by cocaine (20 mg/kg) 20 min later. After each injection, NAc DA axons were optically (opto) activated across 3 trials (2 s, 20 Hz, 20-ms pulses) every 5 min and DA released measured with fiber photometry. […] After each injection, NAc DA axons were optically (opto) inhibited (10 s, continuous trials) every 3 min (8 trials/condition) and DA released measured with fiber photometry. […] DA release was measured with fiber photometry.
For long-term recordings during optogenetic stimulation or chemogenetic inhibition linear fit was calculated across the entire recording or across the vehicle epoch; for event-related experiments fit was performed on fluorescent data obtained in the −60 to +60 s around opto events or −5 to −1 s around behavioral events. […] DA event-related responses were quantified by computing the value at the transient’s peak value and the AUC in the 0 to 10 s or 0 to 60 s period post-event onset. […] The maximal peak value of Veh-normalized ΔF/F0 after opto-onset was plotted over time and the plateau of maximal response was determined by averaging peak opto responses 5, 10, 15 and 20 min post-DETQ. […]

dLight1.3bL143I, sequence (P21728 whole entry L143I, looked up): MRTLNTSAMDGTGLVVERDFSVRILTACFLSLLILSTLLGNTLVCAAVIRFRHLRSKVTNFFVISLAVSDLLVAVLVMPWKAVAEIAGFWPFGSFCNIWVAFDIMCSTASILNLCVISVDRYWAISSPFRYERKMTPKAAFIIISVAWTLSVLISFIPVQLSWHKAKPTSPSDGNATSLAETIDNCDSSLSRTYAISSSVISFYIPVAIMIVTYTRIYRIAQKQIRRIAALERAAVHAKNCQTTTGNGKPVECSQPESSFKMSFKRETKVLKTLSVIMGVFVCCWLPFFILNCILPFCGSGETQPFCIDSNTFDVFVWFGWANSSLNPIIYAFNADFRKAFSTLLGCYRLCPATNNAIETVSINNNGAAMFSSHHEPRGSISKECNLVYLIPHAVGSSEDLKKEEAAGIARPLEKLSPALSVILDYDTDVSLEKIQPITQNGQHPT

What does the source list for `C[C@H]1c2cccc(C(C)(C)O)c2C[C@H](CO)N1C(=O)Cc1c(Cl)cccc1Cl` [DETQ, 2-(2,6-dichlorophenyl)-1-((1S,3R)-3-(hydroxymethyl)-5-(2-hydroxypropan-2-yl)-1-methyl-3,4-dihydroisoquinolin-2(1H)-yl)ethan-1-one]?
Kb (dLight1.3bL143I): 17.7 nM; sensor response to DETQ in the absence of DA (dLight1.3bL143I): could not trigger a response; α factor (dLight1.3bL143I): 10.8; maximal fluorescent response to a saturating concentration of DA (dLight1.3bL143I; DA 100 µM, wide range of DETQ concentrations): not affected; increase in DETQ potency versus dLight1.3b (dLight1.3bL143I; human, hek293 cells): 3 fold; duration of stable increase in DA sensitivity (dLight1.3b): 31 min; opto-evoked DA signal amplitude (dLight1.3b): clear and significant increase; opto-evoked DA signal decay time (dLight1.3b): clear and significant increase
